Measurements reported in patent US20240083857A1, “2-Methyl-Quinazolines” (Bayer Pharma Aktiengesellschaft, priority 2017, published 2024).

Key:
[1] = target: K-Ras^G12C : hSOS1 interaction (Homo sapiens, UniProt Q07889); assay: Biochemical assay 1: K-Ras^G12C interaction assay with hSOS1 (HTRF); type: binding; conditions: for IC50: read-out: Assay 1 (KRAS-SOS Interaction) activity expressed as IC50
[2] = target: Epidermal Growth Factor Receptor (EGFR) (Homo sapiens (Human), UniProt P00533); assay: EGFR kinase assay (TR-FRET); type: biochemical; conditions: values given in μM; read-out: EGFR kinase inhibition IC50
Sequence of Epidermal Growth Factor Receptor (EGFR) (P00533 25-1210): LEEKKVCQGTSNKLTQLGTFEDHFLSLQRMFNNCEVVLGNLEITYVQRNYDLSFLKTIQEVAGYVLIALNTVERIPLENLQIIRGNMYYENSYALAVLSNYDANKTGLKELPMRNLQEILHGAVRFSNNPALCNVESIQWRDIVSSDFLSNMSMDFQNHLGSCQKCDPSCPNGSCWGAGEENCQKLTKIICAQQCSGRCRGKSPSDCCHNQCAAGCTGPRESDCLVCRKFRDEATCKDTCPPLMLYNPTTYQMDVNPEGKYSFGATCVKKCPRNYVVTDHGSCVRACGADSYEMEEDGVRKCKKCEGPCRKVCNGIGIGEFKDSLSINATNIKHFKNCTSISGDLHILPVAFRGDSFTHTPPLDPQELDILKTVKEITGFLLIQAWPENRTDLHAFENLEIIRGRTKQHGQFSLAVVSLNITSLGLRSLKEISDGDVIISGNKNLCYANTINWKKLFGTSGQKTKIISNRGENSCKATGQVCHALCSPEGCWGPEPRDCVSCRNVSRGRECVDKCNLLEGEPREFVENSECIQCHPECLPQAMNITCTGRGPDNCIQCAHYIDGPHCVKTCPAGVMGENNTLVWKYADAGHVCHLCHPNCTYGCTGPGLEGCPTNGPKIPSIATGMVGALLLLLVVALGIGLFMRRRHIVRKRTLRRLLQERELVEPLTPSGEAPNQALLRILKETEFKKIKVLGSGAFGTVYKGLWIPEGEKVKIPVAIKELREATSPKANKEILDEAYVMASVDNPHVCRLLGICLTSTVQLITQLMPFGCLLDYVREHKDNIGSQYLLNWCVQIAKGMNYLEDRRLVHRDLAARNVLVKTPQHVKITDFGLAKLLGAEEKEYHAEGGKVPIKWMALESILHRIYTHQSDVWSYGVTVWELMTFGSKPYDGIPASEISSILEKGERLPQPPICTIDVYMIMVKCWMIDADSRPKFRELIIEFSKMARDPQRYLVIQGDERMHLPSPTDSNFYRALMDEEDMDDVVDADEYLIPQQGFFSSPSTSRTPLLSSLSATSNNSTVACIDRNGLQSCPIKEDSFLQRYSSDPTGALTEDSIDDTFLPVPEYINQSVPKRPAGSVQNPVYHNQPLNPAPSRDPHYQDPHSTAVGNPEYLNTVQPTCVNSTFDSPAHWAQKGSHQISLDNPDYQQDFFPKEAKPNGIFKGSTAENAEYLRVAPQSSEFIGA
In short: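 EGFR purified from A431 cells was preincubated with compound 15 min at 22° C in pH 7.0 Hepes buffer with MgCl2, MnCl2 and vanadate before reaction with a biotinylated peptide. After EDTA stop, phosphopeptide was detected by TR-FRET (anti-phosphotyrosine Tb-cryptate, streptavidin-XL665) as the 665/620 nm emission ratio.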

SMILES	IC50 [1]	IC50 [2]	inhibition at 20 µM ([1]; read-out: Assay 1 (KRAS-SOS Interaction) activity expressed as % inhibition at 20 μM)
COc1cc2nc(C)nc(NC(C)c3ccc(-c4ccc(F)c5ccccc45)s3)c2cc1OC (centres unmarked) [Example 233, N-{1-[5-(4-fluoronaphthalen-1-yl)thiophen-2-yl]ethyl}-6,7-dimethoxy-2-methylquinazolin-4-amine]	10.4 µM	> 20 µM	
COc1cc2nc(C)nc(NC(C)c3cccc4nn(C)cc34)c2cc1OC (centres unmarked) [Example 9, 6,7-dimethoxy-2-methyl-N-[1-(2-methyl-2H-indazol-4-yl)ethyl]quinazolin-4-amine]	1.52 µM	> 20 µM	
COc1cc2nc(C)nc(NC(C)c3ccc(-c4cnc5n4CCC5)s3)c2cc1OC (centres unmarked) [Example 219, N-{1-[5-(6,7-dihydro-5H-pyrrolo[1,2-a]imidazol-3-yl)thiophen-2-yl]ethyl}-6,7-dimethoxy-2-methylquinazolin-4-amine]	0.415 µM	> 20 µM	
COc1cc2nc(C)nc(NC(C)c3ccc(F)c4[nH]ncc34)c2cc1OC (centres unmarked) [Example 5, N-[1-(7-fluoro-1H-indazol-4-yl)ethyl]-6,7-dimethoxy-2-methylquinazolin-4-amine]	1.71 µM	> 20 µM	
COc1cc2nc(C)nc(N[C@H](C)c3cccc(C#N)c3)c2cc1OC [Example 194, 3-{(1R)-1-[(6,7-dimethoxy-2-methylquinazolin-4-yl)amino]ethyl}benzonitrile]	0.493 µM	> 20 µM	
COC(=O)c1cc2c(C(C)Nc3nc(C)nc4cc(OC)c(OC)cc34)cccc2s1 (centres unmarked) [Example 3, methyl 4-{1-[(6,7-dimethoxy-2-methylquinazolin-4-yl)amino]ethyl}-1-benzothiophene-2-carboxylate]	0.113 µM	> 20 µM	
Cc1nc(N[C@H](C)c2cccc3ccccc23)c2ccccc2n1 [Example 186, 2-methyl-N-[(1R)-1-(naphthalen-1-yl)ethyl]quinazolin-4-amine]	9.94 µM	> 20 µM	
COc1cc2nc(C)nc(N[C@H](C)c3ccc(C(N)=O)cc3)c2cc1OC [Example 192, 4-{(1R)-1-[(6,7-dimethoxy-2-methylquinazolin-4-yl)amino]ethyl}benzamide]	4.59 µM	> 20 µM	
COc1cc2nc(C)nc(NC(C)c3cc4cccc(O)c4o3)c2cc1OC (centres unmarked) [Example 28, 2-{-[(6,7-dimethoxy-2-methyquinazolin-4-yl)amino]ethyl}-1-benzofuran-7-ol]		> 20 µM	40%
COc1cc2nc(C)nc(N[C@H](C)c3ccc(Br)cc3)c2cc1OC [Example 187, N-[(1R)-1-(4-bromophenyl)ethyl]-6,7-dimethoxy-2-methylquinazolin-4-amine]	0.476 µM	> 20 µM	
COc1cc2nc(C)nc(N[C@H](C)c3cccc(-c4cnn(CCO)c4)c3)c2cc1OC [Example 256, 2-[4-(3-{(1R)-1-[(6,7-dimethoxy-2-methylquinazolin-4-yl)amino]ethyl}phenyl)-1H-pyrazol-1-yl]ethanol]	0.473 µM	> 20 µM	
COc1cc2nc(C)nc(NC(C)c3ccc(-c4ccccc4C#N)s3)c2cc1OC (centres unmarked) [Example 245, 2-(5-{1-[(6,7-dimethoxy-2-methylquinazolin-4-yl)amino]ethyl}thiophen-2-yl)benzonitrile]	0.592 µM	> 20 µM	
COc1cc2nc(C)nc(N[C@H](C)c3ccc(-c4ccccc4)cc3)c2cc1OC [Example 196, N-[(1R)-1-(biphenyl-4-yl)ethyl]-6,7-dimethoxy-2-methylquinazolin-4-amine]	2.42 µM	> 20 µM	
COc1cc2nc(C)nc(NC(C)c3csc(-c4cnn(CCN5CCCC5)c4)c3)c2cc1OC (centres unmarked) [Example 254, 6,7-dimethoxy-2-methyl-N-[1-(5-{1-[2-(pyrrolidin-1-yl)ethyl]-1H-pyrazol-4-yl}thiophen-3-yl)ethyl]quinazolin-4-amine]	0.814 µM	> 20 µM	
CNCc1ccccc1-c1ccc(C(C)Nc2nc(C)nc3cc(OC)c(OC)cc23)s1 (centres unmarked) [Example 250, 6,7-dimethoxy-2-methyl-N-[1-(5-{2-[(methylamino)methyl]phenyl}thiophen-2-yl)ethyl]quinazolin-4-amine]	0.05 µM	> 20 µM	
COc1cc2nc(C)nc(N[C@H](C)c3cccc(C4=CCN(C)CC4)c3)c2cc1OC [Example 202, 6,7-dimethoxy-2-methyl-N-{(1R)-1-[3-(1-methyl-1,2,3,6-tetrahydropyridin-4-yl)phenyl]ethyl}quinazolin-4-amine]	1.42 µM	> 20 µM	
COc1cc2nc(C)nc(NC(C)c3ccc(-c4cccc(CCO)c4)s3)c2cc1OC (centres unmarked) [Example 181, 2-[3-(5-{1-[(6,7-dimethoxy-2-methylquinazolin-4-yl)amino]ethyl}thiophen-2-yl)phenyl]ethanol]	3.5 µM	> 20 µM	

SMILES	IC50 [1]	IC50 [2]	inhibition at 20 µM ([1]; read-out: Assay 1 (KRAS-SOS Interaction) activity expressed as % inhibition at 20 μM)
COc1cc2nc(C)nc(N[C@H](C)c3ccc(C)cc3)c2cc1OC [Example 195, 6,7-dimethoxy-2-methyl-N-[(1R)-1-(4-methylphenyl)ethyl]quinazolin-4-amine]	0.3 µM	> 20 µM	
COc1cc2nc(C)nc(N[C@H](C)c3ccc(C4CC4)cc3)c2cc1OC [Example 197, N-[(1R)-1-(4-cyclopropylphenyl)ethyl]-6,7-dimethoxy-2-methylquinazolin-4-amine]	0.268 µM	> 20 µM	
COc1cc2nc(C)nc(NC(C)c3ccc(-c4cnn(CCN5CCCC5)c4)s3)c2cc1OC (centres unmarked) [Example 220, 6,7-dimethoxy-2-methyl-N-[1-(5-{1-[2-(pyrrolidin-1-yl)ethyl]-1H-pyrazol-4-yl}thiophen-2-yl)ethyl]quinazolin-4-amine]	0.379 µM	> 20 µM	
COc1cc2nc(C)nc(NC(C)c3cc(F)cc4[nH]ncc34)c2cc1OC (centres unmarked) [Example 6, N-[1-(6-fluoro-1H-indazol-4-yl)ethyl]-6,7-dimethoxy-2-methylquinazolin-4-amine]	2.28 µM	> 20 µM	
COc1cc2nc(C)nc(NC(C)c3ccc(-c4cccc5[nH]ncc45)s3)c2cc1OC (centres unmarked) [Example 247, N-{1-[5-(1H-indazol-4-yl)thiophen-2-yl]ethyl}-6,7-dimethoxy-2-methylquinazolin-4-amine]	0.591 µM	> 20 µM	
COC(=O)c1ccccc1-c1ccc(C(C)Nc2nc(C)nc3cc(OC)c(OC)cc23)s1 (centres unmarked) [Example 178, methyl 2-(5-{1-[(6,7-dimethoxy-2-methylquinazolin-4-yl)amino]ethyl}thiophen-2-yl)benzoate]	1.43 µM	> 20 µM	
COc1cc2nc(C)nc(N[C@H](C)c3ccccc3)c2cc1OC [Example 206, 6,7-dimethoxy-2-methyl-N-[(1R)-1-phenylethyl]quinazolin-4-amine]	0.481 µM	> 20 µM	
COc1cc2nc(C)nc(N[C@H](C)c3cccc(C)c3)c2cc1OC [Example 190, 6,7-dimethoxy-2-methyl-N-[(1R)-1-(3-methylphenyl)ethyl]quinazolin-4-amine]	0.175 µM	> 20 µM	
COc1cc2nc(C)nc(NC(C)c3cccc4cccnc34)c2cc1OC (centres unmarked) [Example 217, 6,7-dimethoxy-2-methyl-N-[1-(quinolin-8-yl)ethyl]quinazolin-4-amine]	8.8 µM	> 20 µM	
COc1cc2nc(C)nc(NC(C)c3cccc4cnn(C)c34)c2cc1OC (centres unmarked) [Example 10, 6,7-dimethoxy-2-methyl-N-[1-(1-methyl-1H-indazol-7-yl)ethyl]quinazolin-4-amine]	1.18 µM	> 20 µM	
COc1cc2nc(C)nc(N[C@H](C)c3ccc(C4=CCN(C)CC4)cc3)c2cc1OC [Example 201, 6,7-dimethoxy-2-methyl-N-{(1R)-1-[4-(1-methyl-1,2,3,6-tetrahydropyridin-4-yl)phenyl]ethyl}quinazolin-4-amine]	19.7 µM	> 20 µM	
COc1cc2nc(C)nc(NC(C)c3ccc(-c4ccccc4CN4CCCC4)s3)c2cc1OC (centres unmarked) [Example 184, 6,7-dimethoxy-2-methyl-N-[1-{5-[2-(pyrrolidin-1-ylmethyl)phenyl]thiophen-2-yl}ethyl]quinazolin-4-amine]	0.0416 µM	> 20 µM	
COc1cc2nc(C)nc(NC(C)c3ccc(-c4ccccc4CN4CC[C@H](F)C4)s3)c2cc1OC (stereo partly drawn) [Example 211, N-{1-[5-(2-{[(3S)-3-fluoropyrrolidin-1-yl]methyl}phenyl)thiophen-2-yl]ethyl}-6,7-dimethoxy-2-methylquinazolin-4-amine]	0.133 µM	> 20 µM	
COc1cc2nc(C)nc(N[C@H](C)c3cccc(-c4cnn(CCN5CCCC5)c4)c3)c2cc1OC [Example 257, 6,7-dimethoxy-2-methyl-N-[(1R)-1-(3-{1-[2-(pyrrolidin-1-yl)ethyl]-1H-pyrazol-4-yl}phenyl)ethyl]quinazolin-4-amine]	0.363 µM	> 20 µM	
COc1cc2nc(C)nc(NC(C)c3ccc(-c4ccc(C(N)=O)cc4)s3)c2cc1OC (centres unmarked) [Example 242, 4-(5-{1-[(6,7-dimethoxy-2-methylquinazolin-4-yl)amino]ethyl}thiophen-2-yl)benzamide]	1.83 µM	> 20 µM	
COc1cc2nc(C)nc(NC(C)c3cccc4cccnc34)c2cc1OC (single isomer, unassigned; enantiomer 1) [Example 230, 6,7-dimethoxy-2-methyl-N-[1-(quinolin-8-yl)ethyl]quinazolin-4-amine, Enantiomer 1]	4.9 µM	> 20 µM	
COc1cc2nc(C)nc(N[C@H](C)c3cccc(Br)c3)c2cc1OC [Example 191, N-[(1R)-1-(3-bromophenyl)ethyl]-6,7-dimethoxy-2-methylquinazolin-4-amine]	0.174 µM	> 20 µM	
